Laboratory results taken from patent publication US20250186469A1, “THERAPEUTIC AGENT FOR OVARIAN CLEAR CELL CARCINOMA” (JSR CORPORATION, priority 2022, published 2025).

Tests used:
[1] = system: ovarian clear cell carcinoma organoid; assay: Sensitivity test of ovarian clear cell carcinoma organoid (cell viability by ATP activity); format: cell-based, human; conditions: exposed for 3 days at 0.0001 to 10 μM, FIGS. 13, 14, 17
Description: Based on the above-described results of HTDS, the test focused on the proteasome inhibitors that were found with multiple hits among the 9 hit compounds. A proteasome inhibitor (bortezomib, carfilzomib, and ixazomib), a microtubule inhibitor (paclitaxel), and a platinum formulation (cisplatin and carboplatin) were prepared at each of final concentrations of 0.0001 μM, 0.001 µM, 0.01 μM, 0.1 μM, 1 μM, and 10 μM, the ovarian clear cell carcinoma organoid was exposed to each of the concentrations for 3 days, and the cell viability was measured by measuring the ATP activity.
FIGS. 13 and 14 show graphic views of the results of the measured cell viabilities.
For the CDK 1, 2, 5, and 9 inhibitor (dinaciclib) that was hit in the 9 compounds that were hit more in HTDS, the cell viability was measured by measuring an ATP activity in the same manner as in Experimental Example 8.

[2] = system: ovarian cancer organoid; assay: Sensitivity test of ovarian cancer organoid to PARP inhibitor (cell viability by ATP activity); format: cell-based, human; conditions: exposed for 3 days at 0.0001 to 10 μM; each cell line; FIG. 7
Description: A sensitivity test of the ovarian cancer organoid to olaparib was performed. Olaparib which is a kind of PARP inhibitor was prepared at a final concentration of each of 0.0001 μM, 0.001 μM, 0.01 μM, 0.1 μM, 1 μM, and 10 μM, and the ovarian cancer organoid was exposed to olaparib for 3 days at each concentration, and the cell viability was measured by measuring the ATP activity.
The vertical axis indicates the cell viability as a ratio to the control, and the horizontal axis indicates the final concentration (μM) of olaparib.

[3] = system: ovarian clear cell carcinoma organoid CCC19-042; assay: Drug sensitivity test for immunodeficient mouse transplanted with ovarian clear cell carcinoma organoid; format: in vivo; conditions: 1 mg/kg intraperitoneally twice a week from the 7th day after transplantation, versus DMSO vehicle; FIG. 15C
Description: The ovarian clear cell carcinoma organoid CCC19-042 was cultured until it reached a diameter of approximately 50 to 100 μm. The organoid was recovered in a 50 mL tube after removing the culture medium from the plate and then suspending the organoid in a Cell Recovery Solution (Corning, 354235). The solution including the recovered organoid was placed on ice and the Matrigel was depolymerized. After the completion of the reaction, the organoid was washed with a culture medium and re-suspended in the Matrigel so that 1×10^6 cells were present in 100 μL.
The organoid corresponding to 1×10^6 cells was transplanted subcutaneously (left shoulder) in an immunodeficient mouse, and the tumor forming ability was evaluated on the 7th day after the transplantation. In addition, a thinly sliced slide was created from an FFPE section of the tumor and subjected to HE staining and HNF1β immunostaining.
With regard to the immunodeficient mouse transplanted with the ovarian clear cell carcinoma organoid shown in Experimental Example 9, administration, measurement of a weekly body weight, and calculation of a tumor volume were performed from the 7th day after transplantation. […]
The tumor volume was calculated by the following expression.

Structure (SMILES)	cell viability [1]	cell viability (ratio to the control) [2]	tumor volume [3]
CC(C)C[C@H](NC(=O)[C@H](CCc1ccccc1)NC(=O)CN1CCOCC1)C(=O)N[C@@H](Cc1ccccc1)C(=O)N[C@@H](CC(C)C)C(=O)[C@@]1(C)CO1 [carfilzomib]	significant decrease in cell viability depending on the concentration	–	–
CC(C)C[C@H](NC(=O)CNC(=O)c1cc(Cl)ccc1Cl)B(O)O [ixazomib]	significant decrease in cell viability depending on the concentration	–	–
O=C(c1cc(Cc2n[nH]c(=O)c3ccccc23)ccc1F)N1CCN(C(=O)C2CC2)CC1 [olaparib]	–	reduced depending on the concentration	–
CC(=O)O[C@H]1C(=O)[C@@]2(C)[C@H]([C@H](OC(=O)c3ccccc3)[C@]3(O)C[C@H](OC(=O)[C@H](O)[C@@H](NC(=O)c4ccccc4)c4ccccc4)C(C)=C1C3(C)C)[C@]1(OC(C)=O)CO[C@@H]1C[C@@H]2O [paclitaxel]	significant decrease in cell viability depending on the concentration	–	–
CC(C)C[C@H](NC(=O)[C@H](Cc1ccccc1)NC(=O)c1cnccn1)B(O)O [bortezomib]	significant decrease in cell viability depending on the concentration	–	decrease in tumor volume
